Data on 21 molecules can be found in patent publication US20160152560A1, “Compounds for the treatment of hypertension and hypertensive end stage renal disease” (THE REGENTS OF THE UNIVERSITY OF CALIFORNIA, priority 2013, published 2016).

pIC50: −log10 of the molar value. “And” between values parts separate entries of the source, which are not always exact repeats. Identical values can stand only once. Like-named read-outs stand apart in the source and are kept apart here. Ends that are not written are not given here.

Data set [1] has as its system T1, nicotinic cholinergic receptor.
T1 construct: nicotine 30 μM, PC12 cells, 30 min; other: Hill plot, nicotine 30 μM, PC12 cells; other: screening at 0.5 μM and 5 μM doses; nicotine 30 μM, PC12 cells; other:
Description: Nicotine-stimulated [3H]-norepinephrine (catecholamine) secretion from PC12 cells. The data set is classed as cell-based, rat. The conditions noted are these: for pIC50 / Hill slope (cooperativity of inhibition of secretion): nicotine 30 μM, PC12 cells; for Hill slope (cooperativity of inhibition of secretion): Hill plot; for Norepinephrine secretion at ascending nicotine doses (noncompetitive inhibition): nicotine 10 to 1000 μM, PC12 cells (FIG. 3C); for Inhibition of catecholamine release triggered by nicotine: nicotine stimulation, PC12 cells (FIG. 3B). Here is the method: (§1) Rat PC12 pheochromocytoma cells were grown at 37° C. with 6% CO2, in 12-well plates, in Dulbecco's modified Eagle's medium (high glucose) supplemented with fetal bovine serum, horse serum, and penicillin/streptomycin. Secretion assays were performed as described previously (N. Biswas, et al., Endocrinology, 149 (2008), 749-757). Cells were labeled for 3 h with 1 μCi/mL of [^3H]-norepinephrine (NET678, Perkin-Elmer, Waltham, Mass.), then washed three times with basal medium and one time with secretion buffer. Subsequently, the cells were incubated for 30 min with or without the agonist nicotine (30 μM), in the presence or absence of test compounds (0.5 μM or 5 μM). For IC50 determinations, secretion assays were performed in the presence of increasing concentrations of test compounds. The extracellular secretion medium and the cell lysates were collected for [^3H]-norepinephrine measurement by liquid scintillation counting. Results were expressed as percent secretion:
(§2) % secretion=[amount released/(amount released+amount in lysate)]×100.
(§3) Net secretion was calculated as agonist-stimulated release minus basal release. To establish the specificity of secretory inhibition by test compounds, in some experiments catecholamine release was triggered with other classes of secretagogues that bypass the nicotinic cholinergic pathway: membrane depolarization (55 mM KCl); P2x purinergic receptor stimulation (100 μM ATP); K^+ (repolarizing) channel blockade (2 mM BaCl2 in the absence of extracellular Ca^2+); or a Ca^2+ ionophore (1 μM ionomycin).
Actions of test compounds were compared with the classical noncompetitive nicotinic antagonist chlorisondamine, wherein labeled cells were incubated with different doses of nicotine in the presence or absence of peptide antagonists or chlorisondamine (5 μM).

Data set [2] deals with nicotinic cholinergic receptor. The note with it: Mahata et al., Mol. Pharmacol. 66 (2004); read-out: IC50 of human catestatin, previously measured; cited from earlier work.
In data set [3] the test system is nicotinic receptors. Description: Nicotine-induced 45Ca2+ uptake by PC12 cells. The note with it: nicotine 30 μM, read-out: IC50 for inhibition of nicotine-induced 45Ca2+ uptake. The data set is classed as cell-based, rat. How it is done:
Nicotinic cholinergic secretory responses in the chromaffin cells are triggered by an early influx of calcium. To test the ability of the compounds to interfere at this early stage of signal transduction, PC12 cells were stimulated with nicotine (30 μM) in the presence or absence of test compounds and agonist-mediated uptake of ^45Ca^2+ was measured. ^45Ca^2+ uptake was performed as described previously with minor modifications S. K. Mahata et al., J. Clin. Invest., 100 (1997), 1623-1633). Briefly, PC12 cells were grown on poly-L-lysine coated 6-well culture dishes, and were washed with 1 mL release buffer (150 mmol/L NaCl, 5 mmol/L KCl, 2 mmol/L CaCl2, 10 mmol/L Hepes buffer, pH 7.4) every 15 minutes for 1 hour at 37° C. Cells were then pre-incubated for 1 min in release buffer in the presence or absence of test compounds. Cells were incubated for 2 min with 1 mL of Ca^2+-free release buffer containing 2 μCi of ^45Ca^2+ (catalog number NEZ01300, Perkin-Elmer), 30 μM nicotine in the presence or absence of test compounds. Thereafter, Ca^2+ uptake was terminated by the addition of 2 mL of ice-cold Ca^2+-free secretion medium containing 2 mmol/L EGTA and 1 mmol/L LaCl3, and further washed six times with 2 mL of the same buffer. Cell lysis buffer (secretion medium containing 0.1% Triton X-100, 1 mL) was then added, and the lysate was collected for liquid scintillation counting.

The subject of data set [4] is PC12 cells. Nature of the data set: Basal [3H]-norepinephrine secretion from PC12 cells. The note with it: no agonist. The data set is classed as cell-based, rat. How it is done:
as §1, §2
The compounds were also tested to determine their effect on basal secretion.

Data set [5] deals with PC12 cells. Description: Catecholamine release triggered by secretagogues that bypass the nicotinic cholinergic pathway (KCl, ATP, BaCl2, ionomycin). The data set is classed as cell-based, rat. The conditions noted are these: 55 mM KCl, 100 μM ATP, 2 mM BaCl2, 1 μM ionomycin. Here is the method:
as §3
In addition to nicotinic-cholinergic stimulation, several secretagogues that act at later stages in the secretory pathway than the nicotinic receptor were tested, including membrane depolarization (by KCl), or blockade of repolarization (by Ba^2+). In addition, secretagogues that act on different targets from the nicotinic-cholinergic receptor, such as P2x (ATP) or artificial Ca^2+ pores (Ca^2+ ionophore ionomycin) were used.

For data set [6], the system named is BPH/2J polygenic hypertensive mice. Nature of the data set: Telemetric continuous intra-arterial blood pressure and heart rate in hypertensive BPH/2J mice. The data set is classed as in vivo, mouse. The conditions noted are these: 5 μg/g body weight i.p. The text has this: Telemetric measurement of blood pressure (BP) in conscious hypertensive mice (polygenic hypertensive BPH/2J mouse model; F. A. Wright et al., Hypertension, 34 (1999), p. 625-630) was achieved using a Data Sciences International (DSI; Transoma Medical) Physiol Tel telemetry system, implanting a catheter coupled to a TA11PA-C20 (DSI) transmitter, as described (N. R. Mahapatra et al., J. Clin. Invest., 115 (2005), 1942-1952). The animals and implants were left to stabilize for ten days after surgery. BPH/2J polygenic hypertensive mice (n=7/group) were then treated with test compound (5 μg/g body weight, intra-peritoneal; or vehicle). BP and heart rate (HR) were measured continuously over 24 hours, before and after compound administration.

[7] abbreviates: Table 1, 30 min, read-out: IC50: concentration that achieves 50% inhibition of secretion.
[8] abbreviates: increasing compound doses, read-out: IC50 from secretion assays with increasing compound doses.

In the case of `CCN1CCC(CNc2cc(C)nc(NC(=N)Nc3cc(Cl)cc(Cl)c3)n2)C1` (stereo not drawn) [TKO-10-17], the pIC50 in data set [1] (setting [7]) was 5.72.
Still for that read-out and setting: then `CCN/C(=N/c1cccc(C2=NCCN2)c1)c1ccc(/C(=N\c2cccc(C3=NCCN3)c2)NCC)cc1` [TKO-10-8], with 5.80; and `CCN1CCC(CNc2cc(C)nc(NC(=N)Nc3ccc(Cl)c(Cl)c3)n2)C1` (stereo not drawn) [TKO-10-16], with 6.35.
Still for that read-out and setting: for `CNC(=N)c1ccc(NC(=N)c2ccc(Cl)c(C(=N)Nc3ccc(C(=N)NC)cc3)c2)cc1` [TKO-10-6] the value was 5.74.
For the molecule “SSMKLSFRARAYGFRGPGPQL [Human catestatin]”, in data set [2], the pIC50 is 6.09.
Regarding `Nc1ccc(CCCCc2nc(N)nc(N)c2-c2ccc(Cl)c(Cl)c2)cc1` [TKO-10-19], the pIC50 in data set [1] (setting [7]) is 5.59.
`C/N=C(\NC)c1ccc(/N=C(\NC)c2ccc(/C(=N/c3ccc(/C(=N/C)NC)cc3)NC)cc2)cc1` [TKO-10-3]: the pIC50 in data set [1] (setting [7]) is 5.77.
For `C/N=C(/NC)c1ccc(NC(=O)Nc2ccc(C)c(NC(=O)Nc3ccc(/C(=N\C)NC)cc3)c2)cc1` [TKO-10-7], the pIC50 was ~7.00 and 7.00 in data set [3]; 6.54 in data set [1] (setting [7]); 7.62 in data set [1] (setting [8]).
Regarding `CNC(=O)c1cc(NC(=O)Nc2cccc(C3=NCCN3)c2)cc(NC(=O)Nc2cccc(C3=NCCN3)c2)c1` [TKO-10-5], the “Effect on basal secretion (~5% 3H-NE release)” value in data set [4] is reported as “remained unaltered”. Further, the “Inhibition of catecholamine release caused by agents acting distal to the receptor or on other receptor classes” value in data set [5] is recorded as “not when secretion was caused by agents acting distal to the receptor, or on other receptor classes”. For the same molecule, the pIC50 is ~7.00 and 7.00 in data set [3]; 5.96 in data set [1] (setting [7]); 6.00 in data set [1] (setting [8]). The “Hill slope (cooperativity of inhibition of secretion)” value in data set [1] was “near unity”. In data set [1] (30 min), the “Norepinephrine secretion at ascending nicotine doses (noncompetitive inhibition)” value is on record as “reduced norepinephrine secretion significantly”. The “Inhibition of catecholamine release triggered by nicotine” value in data set [1] is “significantly inhibited catecholamine release”.
On to `Nc1nc(N)c(/N=N/c2ccc(S(=O)(=O)Nc3ncccn3)cc2)cc1/N=N/c1ccccc1` [TKO-10-12], for which, in data set [1] (setting [7]), the pIC50 was 5.70.
As for `C/N=C(/NC)c1ccc(NC(=O)Nc2cccc(NC(=O)Nc3ccc(/C(=N\C)NC)cc3)c2)cc1` [TKO-10-4], the pIC50 was ~7.15 and 7.15 in data set [3]; 6.64 in data set [1] (setting [7]); 7.39 in data set [1] (setting [8]).
As to `CCN1CCCC(CNc2cc(C)nc(NC(=N)Nc3ccc(Cl)c(Cl)c3)n2)C1` (stereo not drawn) [TKO-10-20], the pIC50 in data set [1] (setting [7]) is 5.96.
`Nc1nc(N)c(-c2ccc(Cl)cc2)c(CCc2ccc(NC(=O)CBr)cc2)n1` [TKO-10-10]: the pIC50 in data set [1] (setting [7]) was 5.82.
The same measure, in the same setting: then `CC1(C)N=C(N)N=C(N)N1c1cccc(CNC(=O)Nc2ccccc2)c1` [TKO-10-15], with less than 5.30; and `Nc1nc(N)c2nc(CNc3ccc(C(=O)N[C@@H](CCC(=O)O)C(=O)O)cc3)cnc2n1` [TKO-10-1], with less than 5.30.
Take `CNC(=O)c1ccc(NC(=O)Nc2cccc(C3=NCCN3)c2)cc1NC(=O)Nc1cccc(C2=NCCN2)c1` [TKO-10-9]: in data set [1] (setting [7]), the pIC50 was 5.85.
With `C/C(=N\NC(=N)N)c1cccc(NC(=S)Nc2cccc(/C(C)=N/NC(=N)N)c2)c1` [TKO-10-18], in data set [3], the pIC50 is ~7.05 and 7.05. In data set [6], the “Fall in heart rate (HR)” value was roughly 180 beats/min, the “Reflex tachycardia after fall in BP” value is “not accompanied by reflex tachycardia”, the “Time by which BP declines were apparent” value was 10 to 30 min and the “Time for which BP declines were maintained” value is no more than 60 min. In addition, in data set [6] (initial DBP 104.9±0.1 mmHg), the “Reduction in DBP” value is roughly 25 mmHg. For the same molecule, in data set [6] (initial SBP 145.0±0.6 mmHg), the “Reduction in SBP” value is roughly 33 mmHg. For the same molecule, the “Hill slope (cooperativity of inhibition of secretion)” value in data set [1] is “near unity”. For the same molecule, the pIC50 in data set [1] (setting [7]) was 6.74. Further, in data set [1] (setting [8]), the pIC50 was 7.77.
As for `Cc1ccnc(NS(=O)(=O)c2ccc(/N=N/c3cc(/N=N/c4ccccc4)c(N)nc3N)cc2)n1` [TKO-10-11], the pIC50 in data set [1] (setting [7]) was less than 5.30.
In the case of `O=C(Nc1cc(C2=NCCN2)cc(C2=NCCN2)c1)Nc1cc(C2=NCCN2)cc(C2=NCCN2)c1` [TKO-10-2], the pIC50 in data set [1] (setting [7]) was less than 5.30.
The same measure, in the same setting: then `Cc1cc(NC(=O)NCc2ccc(N3C(N)=NC(N)=NC3(C)C)cc2)ccc1S(=O)(=O)F` [TKO-10-13], with 6.06.
As to `CCN(CC)CC(O)CNc1cc(C)nc(NC(=N)Nc2ccc(Cl)c(Cl)c2)n1` (stereo not drawn) [TKO-10-14], the “Effect on basal secretion (~5% 3H-NE release)” value in data set [4] is “remained unaltered”. The “Inhibition of catecholamine release caused by agents acting distal to the receptor or on other receptor classes” value in data set [5] is on record as “not when secretion was caused by agents acting distal to the receptor, or on other receptor classes”. Besides, the pIC50 in data set [1] (setting [7]) was 6.17. In data set [1] (30 min), the “Norepinephrine secretion at ascending nicotine doses (noncompetitive inhibition)” value was “reduced norepinephrine secretion significantly”. In data set [1], the “Inhibition of catecholamine release triggered by nicotine” value is “significantly inhibited catecholamine release”.
